This is an account of results in patent publication US20260297164A1, “ANTI-FIBROTIC PEPTIDES AND USES THEREOF” (Deackt, Inc., priority 2021, published 2026).

This assay concerns TGF-β1-induced PI3K/Akt/mTOR, p62, IKK signaling in mouse lung fibroblasts. Briefly: Western immunoblot of signaling proteins in TGF-β1-stimulated mouse lung fibroblasts (SDC2-pep). The assay is classed as cell-based. Conditions: wild type fibroblasts, TGF-β1 10 ng/ml, 24 h. Here is the method:
FIG. 5. […] (A-C) Ptprj^fl/fl Col1a2^Cre-ER(T)+/0 mice (fibroblast-specific CD148 deficient) and Col1a2^Cre-ER(T)+/0 (WT) mice were exposed to BLM. SDC2 18-aa peptide (SDC2-pep, 0.5 mg/kg) was intranasally delivered into WT and Ptprj^fl/fl Col1a2^Cre-ER(T)+/0 mice 10 days after BLM injury. Treatments were repeated at day 12, 14, 16 and 18. (A) At 24 days after BLM exposure lungs were harvested and stained with Masson's trichrome (n=3 for saline and n=5 for BLM groups). (B) Hydroxyproline content was measured in the left lung of mice exposed to BLM (n=11) or saline (n=5). Gene expression of (C) Fn and Col1a1; and (D) connective tissue growth factor (Ctgf) in harvested lungs were measured using qPCR (n=5 for each condition). […] (E) Expression of p-AKT/Akt, p-mTOR/mTOR, p62/GAPDH p-IKKα/β/IKKα, α-SMA/GAPDH, and CD148/GAPDH was determined by Western immunoblotting (n=4), and corresponding densitometry (ImageJ software). […] (F) mRNA levels of Col1a1 and Fn were measured by qPCR (n=5 for each condition). […] Gel contractility was measured at 0, 12, and 24 h after TGF-β1 stimulation (n=6 for each condition). […] Total cell concentrations were measured in BAL fluid from Ptprj^fl/fl Col1a2^Cre-ER(T)+/0 mice and Col1a2-Cre (control) mice 21 days after BLM injury (n=5/group). […]
On the technique in general: Immunoblotting shows a protein as a band on a membrane.

For the substance TGF-β1, the “expression of p-Akt, p-mTOR, p62, p-IKKα/β, and α-SMA” value is “increased”.
